In patent publication US20180133211A1, “METHODS AND MATERIALS FOR PROMOTING BONE FORMATION” (Mayo Foundation for Medical Education and Research, priority 2015, published 2018):

Test system: Mesenchymal stem cells
Assay: RNA-Seq of mesenchymal stem cells treated with BMP2 and/or GSK126
Assay type: cell-based, human
Settings: 2 μM GSK126 together with 50 ng/ml BMP2
Description: mRNASeq was performed on the following samples: 1) MSCs grown on plastic or titanium disks in osteogenic cocktail (one sample from each time-point, samples created by pooling biological triplicates), 2) RNA from d3 AMCs treated with vehicle or 2 μM GSK126 in osteogenic cocktail (three samples from each treatment group), 3) RNA from d3, d6, and d10 MC3T3 treated with vehicle or 5 μM GSK126 (one sample from each treatment group at each time-point, samples created by pooling biological triplicates), 4) RNA from three day old female WT or cKO (Prrx1-Ezh2) (one sample from each genotype, pooling of RNA from three (WT) and two (cKO)), and one sample of MSCs in adipogenic cocktail for six days. High throughput mRNA sequencing and bioinformatic analyses (mRNASeq) were performed as described elsewhere (Dudakovic et al., J. Cell Biochem., 115:1816-1828 (2014)).
In addition, osteogenic genes are synergistically activated by GSK126 and BMP2. Mesenchymal stem cells were treated with 50 ng/ml BMP2 and/or 2 μM GSK126. […] Thus, EZH2 inhibition enhances the osteogenic potential of cells treated with BMP2, a key osteogenic activator.

With `CC[C@H](C)n1cc(C)c2c(C(=O)NCc3c(C)cc(C)[nH]c3=O)cc(-c3ccc(N4CCNCC4)nc3)cc21` [GSK126, N-[(1,2-dihydro-4,6-dimethyl-2-oxo-3-pyridinyl)methyl]-3-methyl-1-[(1S)-1-methylpropyl]-6-[6-(1-piperazinyl)-3-pyridinyl]-1H-indole-4-carboxamide] the “expression of key osteogenic factors DLXS, SP7, IBSP” value was “synergistically enhanced”.
